In patent publication US11203577B2, “Sulfonyl-structure-containing triazinone derivatives, their preparation methods and their uses in insect killing and/or bacterium killing” (Nankai University, priority 2017, dated 2021):

Tests used:
[1] = system: Cucumber fusarium wilt; experiment: In vitro fungicidal activity, PDA colony diameter; assay type: cell-based; details: 96 h, 50 mg/kg, inhibition of colony diameter, read-out: Fungicidal activity (%) Cucumber fusarium wilt
[2] = system: Cercospora brown spot of peanut; experiment: In vitro fungicidal activity, PDA colony diameter; assay type: cell-based; details: 96 h, 50 mg/kg, inhibition of colony diameter, read-out: Fungicidal activity (%) Cercospora brown spot of peanut
[3] = system: Tomato early blight; experiment: In vitro fungicidal activity, PDA colony diameter; assay type: cell-based, Alternaria solani; details: 50 mg/kg, inhibition of colony diameter; read-out: Fungicidal activity (%) Tomato early blight
[4] = system: Wheat head blight; experiment: whole plant or invertebrate; assay type: cell-based; details: Triticum aestivum, read-out: Fungicidal activity (%) Wheat head blight
[5] = system: Rice bakanae disease; experiment: In vitro fungicidal activity, PDA colony diameter; assay type: cell-based; details: 50 mg/kg, inhibition of colony diameter; read-out: Fungicidal activity (%) Rice bakanae disease
[6] = system: Sclerotinia rot of colza; experiment: In vitro fungicidal activity, PDA colony diameter; assay type: cell-based; details: 96 h, 50 mg/kg, inhibition of colony diameter, read-out: Fungicidal activity (%) Sclerotinia rot of colza
[7] = system: Apple ring rot; experiment: In vitro fungicidal activity, PDA colony diameter; assay type: cell-based; details: inhibition of colony diameter
In short: (§1)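 Mycelial plugs cut from the edge of 7-day PDA colonies placed on PDA containing 50 mg/kg compound or on compound-free PDA, grown 4 days. Colony diameters measured; percent inhibition calculated against untreated control.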

[8] = system: Capsicum phytophthora blight; experiment: In vitro fungicidal activity, PDA colony diameter; assay type: cell-based; details: 96 h
In short: as §1

[9] = system: Wheat sheath blight; experiment: In vitro fungicidal activity, PDA colony diameter; assay type: cell-based; details: 50 mg/kg, inhibition of colony diameter; read-out: Fungicidal activity (%) Wheat sheath blight
[10] = system: Corn southern leaf blight; experiment: In vitro fungicidal activity, PDA colony diameter; assay type: cell-based; details: 50 mg/kg, inhibition of colony diameter; read-out: Fungicidal activity (%) Corn southern leaf blight
[11] = system: Watermelon anthracnose; experiment: In vitro fungicidal activity, PDA colony diameter; assay type: cell-based; details: 50 mg/kg, inhibition of colony diameter; read-out: Fungicidal activity (%) Watermelon anthracnose
[12] = system: Potato late blight; experiment: microbe, parasite or virus in culture; assay type: cell-based; details: Phytophthora infestans, 96 h, read-out: Fungicidal activity (%) Potato late blight
[13] = system: Rice sheath blight; experiment: In vitro fungicidal activity, PDA colony diameter; assay type: cell-based; details: 50 mg/kg, inhibition of colony diameter; read-out: Fungicidal activity (%) Rice sheath blight
[14] = system: Armyworms; experiment: Test of insecticidal activity against armyworms (leaf immersion); details: 3-4 days
[15] = system: Maize borers; experiment: Test of insecticidal activity against maize borers (leaf immersion); details: read-out: Mortalities (%) Maize borers
[16] = system: mosquito larvae (Culer pipiens pallens); experiment: Test of insecticidal activity against mosquito larvae (checked after 24 h); details: for insecticidal activity against mosquito larvae: in vivo
[17] = system: bean aphides (Aphis laburni Kaltenbach); experiment: Test of insecticidal activity against aphides (leaf immersion, checked after 96 h); details: for insecticidal activity against aphides compared with pymetrozine: 5 mg/kg; for mortality at 5 mg/kg / mortality at 10 mg/kg / mortality at 100 mg/kg / mortality at 600 mg/kg: Aphis, 96 h, read-out: Mortalities (%) against aphides
[18] = system: Cotton bollworms; experiment: Test of insecticidal activity against cotton bollworms (pesticide mixed into feedstuff); details: read-out: Mortalities (%) Cotton bollworms
Experimental: Method of testing against cotton bollworms: the pesticide is mixed into the feedstuff, i.e., 3 mL prepared solution is added into about 27 g freshly prepared feedstuff; thus, required concentration is obtained by diluting by 10 times.

[19] = 24 h, read-out: Mortalities (%) against mosquito larvae

Row | Compound | inhibition of growth at 50 mg/kg [1] [%] | inhibition of growth at 50 mg/kg [2] [%] | inhibition at 50 mg/kg [3] [%] | inhibition at 50 mg/kg [4] [%] | inhibition at 50 mg/kg [5] [%] | inhibition of growth at 50 mg/kg [6] [%] | inhibition at 50 mg/kg [7] [%] | inhibition of growth at 50 mg/kg [8] [%] | inhibition at 50 mg/kg [9] [%] | inhibition at 50 mg/kg [10] [%] | inhibition at 50 mg/kg [11] [%] | inhibition of growth at 50 mg/kg [12] [%] | inhibition at 50 mg/kg [13] [%] | Mortalities (%) Armyworms ([14]; 600 mg/kg) [%] | mortality at 600 mg/kg [15] [%] | mortality at 2 mg/kg [16, 19] [%] | mortality at 5 mg/kg [16, 19] [%] | mortality at 10 mg/kg [16, 19] [%] | mortality at 5 mg/kg [17] [%] | mortality at 10 mg/kg [17] [%] | other results
1 | CC1=NNC(=O)N(NS(=O)(=O)c2ccc(F)cc2)C1 [Ia-18, 4-fluoro-N-(6-methyl-3-oxo-2,3-dihydro-1,2,4-triazin-4(5H)-yl)-benzenesulfonamide] | 14.7 | 12 | 11.9 | 2.7 | 20.7 | 21 | 8.1 | 5.6 | 4.3 | 3.1 | 14.7 | 18.7 | 22.1 | 50 | 25 | 40 | 100 | 100 | 45 | 100 | insecticidal activity against aphides compared with pymetrozine [17]: equivalent to the insecticidal activity of pymetrozine; mortality at 100 mg/kg [17]: 100%; mortality at 600 mg/kg [17]: 100%; mortality at 600 mg/kg [18]: 0%
2 | CC1=NNC(=O)N(NS(=O)(=O)c2ccc(F)cc2F)C1 [Ia-19, 2,4-difluoro-N-(6-methyl-3-oxo-2,3-dihydro-1,2,4-triazin-4(5H)-yl)-benzenesulfonamide] | 11.8 | 12 | 19.4 | 5.4 | 17.2 | 15.8 | 24.3 | 5.6 | 0 | 18.7 | 16.4 | 25 | 11.6 | 25 | 20 | 100 | 100 | 100 | 25 | 85 | mortality at 1 mg/kg [16, 19]: 60%; insecticidal activity against mosquito larvae [16]: relatively high insecticidal activity; insecticidal activity against aphides compared with pymetrozine [17]: equivalent to the insecticidal activity of pymetrozine; mortality at 100 mg/kg [17]: 100%; mortality at 600 mg/kg [17]: 100%; mortality at 600 mg/kg [18]: 20%
3 | CC1=NNC(=O)N(NS(=O)(=O)c2ccc(F)c(F)c2F)C1 [Ia-20, 2,3,4-trifluoro-N-(6-methyl-3-oxo-2,3-dihydro-1,2,4-triazin-4(5H)-yl)-benzenesulfonamide] | 0 | 12 | 16.4 | 5.4 | 10.3 | 15.8 | 4.1 | 0 | 17.4 | 3.1 | 13.1 | 18.7 | 9.3 | 65 | 50 | 20 | 100 | 100 | 10 | 70 | mortality at 100 mg/kg [17]: 100%; mortality at 600 mg/kg [17]: 100%; mortality at 600 mg/kg [18]: 20%
4 | CC1=NNC(=O)N(NS(=O)(=O)c2ccc(Cl)cc2)C1 [Ia-21, 4-chloro-N-(6-methyl-3-oxo-2,3-dihydro-1,2,4-triazin-4(5H)-yl)-benzenesulfonamide] | 5.9 | 12 | 6 | 16.2 | 24.1 | 26.3 | 8.1 | 25 | 14.3 | 15.6 | 24.6 | 18.7 | 11.6 | 75 | 60 | 40 | 100 | 100 | 35 | 85 | insecticidal activity against aphides compared with pymetrozine [17]: equivalent to the insecticidal activity of pymetrozine; mortality at 100 mg/kg [17]: 100%; mortality at 600 mg/kg [17]: 100%; mortality at 600 mg/kg [18]: 50%
5 | CC1=NNC(=O)N(NS(=O)(=O)c2ccc(Br)cc2)C1 [Ia-22, 4-bromo-N-(6-methyl-3-oxo-2,3-dihydro-1,2,4-triazin-4(5H)-yl)-benzenesulfonamide] | 14.7 | 16 | 6 | 16.2 | 17.2 | 21 | 37.8 | 27.8 | 8.7 | 3.1 | 56.3 | 25 | 23.2 | 100 | 100 | 100 | 100 | 100 | 40 | 100 | Mortalities (%) Armyworms ([14]; 200 mg/kg): 70%; mortality at 200 mg/kg [15]: 65%; mortality at 0.5 mg/kg [16, 19]: 40%; mortality at 1 mg/kg [16, 19]: 100%; insecticidal activity against mosquito larvae [16]: relatively high insecticidal activity; insecticidal activity against aphides compared with pymetrozine [17]: equivalent to the insecticidal activity of pymetrozine; mortality at 100 mg/kg [17]: 100%; mortality at 600 mg/kg [17]: 100%; mortality at 200 mg/kg [18]: 80%; mortality at 600 mg/kg [18]: 100%
6 | CC1=NNC(=O)N(NS(=O)(=O)c2ccc(I)cc2)C1 [Ia-23, 4-iodo-N-(6-methyl-3-oxo-2,3-dihydro-1,2,4-triazin-4(5H)-yl)-benzenesulfonamide] | 8.8 | 28 | 19.4 | 10.8 | 20.7 | 31.6 | 25.7 | 38.9 | 21.7 | 25 | 68.4 | 34.3 | 29.1 | 25 | 20 | 100 | 100 | 100 | 45 | 100 | mortality at 1 mg/kg [16, 19]: 30%; insecticidal activity against mosquito larvae [16]: relatively high insecticidal activity; insecticidal activity against aphides compared with pymetrozine [17]: equivalent to the insecticidal activity of pymetrozine; mortality at 100 mg/kg [17]: 100%; mortality at 600 mg/kg [17]: 100%; mortality at 600 mg/kg [18]: 30%
